Assay results reported in PubChem BioAssay AID720587 (Broad Institute, 2013).
Values joined by “and” are separate entries in the source; they are usually repeats but may differ in a detail not shown here. Identical values can stand only once.

Tested on: A673 Ewing sarcoma viability, CellTiter-Glo ATP luminescence, 72 h
Assay: EWS/Fli1-dependent A673 cell killing, confirmation, CellTiter-Glo luminescence, cherry-pick retest (AID 720587)

| SMILES | AC35 |
| --- | --- |
| COC(=O)C[C@@H]1CC[C@@H]2[C@@H](COc3ccc(NC(=O)Nc4cccc(C#N)c4)cc3C(=O)N2C)O1 | 9.17 µM |
| C[C@@H]1O[C@@H](O[C@@H]2C=C3CC[C@@H]4C(CC[C@]5(C)[C@@H](c6ccc(=O)oc6)CC[C@]45O)[C@@]3(C)CC2)[C@H](O)[C@H](O)[C@H]1O (some centres not stated) | 0.0233 µM |
| CC(C)Oc1ccc(Br)cc1C(=O)N/N=C/c1c[nH]c2ccccc12 | 22.6 µM |
| O=C(NC[C@@H]1N[C@@H](CO)[C@H]1c1ccc(C2=CCCCC2)cc1)c1cccc(F)c1 | 11.1 µM |
| Cc1ccc2nc(-c3ccccc3)nn2c1 | 13.8 µM |
| C=C(C(=O)c1ccccc1)C(C(=C)C(=O)c1ccccc1)c1ccc(OC)cc1 | 4.04 µM |
| COC(=O)C[C@@H]1CC[C@@H]2[C@H](COc3ccc(NC(=O)Nc4cccc(C#N)c4)cc3C(=O)N2C)O1 | 12 µM |
| COc1ccc(/C=C(/C(=O)c2cccs2)N2C=CC=CC2=C(C#N)C#N)cc1 | 3.97 µM |
| COC(=O)C[C@H]1CC[C@H]2[C@@H](COc3ccc(NC(=O)Nc4cccc(Cl)c4)cc3C(=O)N2C)O1 | 14.7 µM |
| OC[C@H]1[C@@H](c2ccc(C#CC3CCCC3)cc2)[C@@H]2CN(CCC(F)(F)F)CCCCN12 | 7.53 µM |
| CCN1C/C(=C/c2ccc(OC)c(O)c2)C(=O)/C(=C/c2ccc(OC)c(O)c2)C1 | 11.1 µM |
| O=c1[nH]c(=O)n([C@H]2C[C@H](O)[C@@H](CO)O2)cc1F | 0.0545 µM |
| N#C[C@H]1[C@H](c2ccc(-c3ccccc3F)cc2)[C@@H](CO)N1C(=O)Cc1ccccc1 | 10.2 µM |
| OCC1OC(n2ccc3c2ncn2ncnc32)C(O)C1O (configuration not stated) | 0.693 µM |
| COc1ccc(/C=C2/NC(=O)N(CC(=O)Nc3cccc(C)c3)C2=O)cc1O | 18.8 µM |
| O=C(Sc1cccc2cccnc12)c1ccccc1Br | 1.17 µM |
| Cc1cccc(N2CCN(C3C(=O)Nc4ccccc4-n4nnnc43)CC2)c1C (configuration not stated) | 13.1 µM |
| Cc1cccc(/C=C(\c2nc3ccccc3[nH]2)S(=O)(=O)c2ccccc2)c1 | 5.92 µM |
| C[C@@H]1CN([C@@H](C)CO)C(=O)c2cc(NS(=O)(=O)c3ccc(Cl)cc3)ccc2O[C@@H]1CN(C)Cc1ccc(C(=O)Nc2ccccc2N)cc1 | 10.7 µM |
| C[C@@H]1CN([C@H](C)CO)C(=O)c2cc(C#CCN(C)C)cnc2O[C@H]1CN(C)Cc1ccc(-c2ccccc2)cc1 | 10.2 µM |
| CC(C)c1oc(=O)cc2c1[C@@H](O)[C@H]1OC(=O)[C@@]3(C)CC[C@@H](O)[C@@]2(C)C13 (some centres not stated) | 19.3 µM |
| C=C1C(=O)[C@@]23[C@H](O)C[C@@H]4C(C)(C)CC[C@H](O)[C@@]4(C)[C@@H]2CC[C@@H]1[C@H]3O | 3.15 µM |

| SMILES | AC35 |
| --- | --- |
| CC(C)(C)c1ccc(Oc2ccc(N)cn2)cc1 | 5.13 µM |
| Cc1c(Cl)cccc1NC(=O)CCC(=O)N/N=C/c1ccc[nH]1 | 6.52 µM |
| Cc1nc(N)nc(N)c1-c1ccc(Cl)c(Cl)c1 | 0.928 µM |
| C[C@H]1CN([C@@H](C)CO)C(=O)c2cc(N(C)C)ccc2O[C@@H]1CN(C)Cc1ccc(C(=O)Nc2ccccc2N)cc1 | 14.1 µM |
| C[C@H](CO)N1C[C@H](C)[C@H](CN(C)Cc2ccc(C(=O)Nc3ccccc3N)cc2)Oc2ccc(NC(=O)C3CC3)cc2CC1=O | 7.86 µM |
| COC1C(O)C(C)OC(OC2CCC3(C)C(CCC4C3C(O)CC3(C)C(C5=CC(=O)OC5)CCC43O)C2)C1O (configuration not stated) | 0.228 µM |
| C[C@H](CO)N1C[C@H](C)[C@H](CN(C)Cc2ccc(C(=O)Nc3ccccc3N)cc2)Oc2c(cccc2N(C)C)C1=O | 17.6 µM |
| CO[C@H]1CN(C)C(=O)c2cc(NC(=O)c3ccc(Oc4ccccc4)cc3)ccc2OC[C@H](C)NC[C@@H]1C | 12.3 µM |
| COc1ccc(S(=O)(=O)Nc2cccc3c2O[C@H](CN(C)Cc2ccc(C(=O)Nc4ccccc4N)cc2)[C@H](C)CN([C@@H](C)CO)C3=O)cc1 | 5.46 µM |
| COc1cc(-c2coc3c(C(=O)NCc4ccc(C(F)(F)F)cc4)cccc23)ccc1O | 13.7 µM |
| C[C@@H]1CN([C@H](C)CO)C(=O)c2cccc(N(C)C)c2O[C@@H]1CN(C)Cc1ccc(C(=O)Nc2ccccc2N)cc1 | 19.6 µM |
| C[C@]12CC[C@H](O)C[C@H]1CC[C@@H]1[C@@H]2CC[C@]2(C)[C@@H](C3=CC(=O)OC3)CC[C@]12O | 0.62 µM |
| C[C@H](CO)N1C[C@H](C)[C@H](CN(C)Cc2ccc(C(=O)Nc3ccccc3N)cc2)Oc2ccc(NS(=O)(=O)c3cccs3)cc2C1=O | 14.5 µM |
| O=C(O)c1ccc(N/N=C/c2ccc3nccnc3c2)cc1 | 15 µM |
| Cc1cc(C(=O)Nc2ccc3c(c2)C(=O)N(C)[C@@H]2CC[C@H](CC(=O)N[C@H](C)c4ccccc4)O[C@H]2CO3)no1 | 12.9 µM |
| CC(C)(C)c1ccc(Cn2c(=O)cnc3ccccc32)cc1 | 12.5 µM |
| CCc1ccc(N2C=C(C(=O)OC)C(c3ccc(OC)cc3)C(C#N)=C2N)cc1 (configuration not stated) | 12.5 µM |
| Nc1nc(N)c2c(ccc3nccc32)[nH]1 | 7.01 µM |
| C=C1C(=O)O[C@@H]2[C@H]1[C@@H](OC(=O)/C(C)=C/C)C/C(C)=C\C(=O)/C=C(\C)[C@@H]2O | 3.23 µM |
| C[C@H]1CN([C@@H](C)CO)C(=O)c2cc(NC(=O)C3CCCCC3)ccc2O[C@H]1CN(C)Cc1ccc(C(=O)Nc2ccccc2N)cc1 | 11.5 µM |
| O=C(c1nnsc1S(=O)c1ccc(Cl)cc1)N1CCOCC1 (configuration not stated) | 5.46 µM |
| Cc1cc(C)cc(N2C(=O)NC(=O)/C(=C\C=C\c3ccco3)C2=O)c1 | 3.84 µM |

| SMILES | AC35 |
| --- | --- |
| C(=N\Nc1nc2ccccc2s1)/c1ccccn1 | 0.696 µM |
| C[C@H](CO)N1C[C@H](C)[C@H](CN(C)Cc2ccccc2)Oc2ccc(NC(=O)CCCCCC(=O)Nc3ccccc3N)cc2CC1=O | 15.7 µM |
| CN(C)c1ccc(/C=N/Nc2nc3ccccc3o2)cc1 | 20.9 µM |
| CCN1/C(=C/C=C/c2oc3ccc(-c4ccccc4)cc3[n+]2CC)Oc2ccc(-c3ccccc3)cc21 | 1.98 µM |
| CN(C)c1ncnc2c1ccn2C1OC(CO)C(O)C1O (configuration not stated) | 2.94 µM |
| C[C@@H]1CN([C@@H](C)CO)C(=O)c2cc(NC(=O)Nc3ccccc3)ccc2O[C@@H]1CN(C)Cc1ccc(C(=O)Nc2ccccc2N)cc1 | 7.56 µM |
| Cc1noc(C)c1C(=O)Nc1sccc1C(N)=O | 14.3 µM |
| CCc1ccc2oc(C(=O)N3CCN(c4ccccc4OC)CC3)cc(=O)c2c1 | 14.3 µM |
| C[C@@H]1CN([C@@H](C)CO)C(=O)c2cccc(NS(=O)(=O)c3ccc(Cl)cc3)c2O[C@@H]1CN(C)Cc1ccc(C(=O)Nc2ccccc2N)cc1 | 8.47 µM |
| CC(=O)OC1CC2(O)C3CCC4CC(O)CCC4(C)C3CCC2(C)C1C1=CC(=O)OC1 (configuration not stated) | 0.213 µM |
| COc1cc(/C=C/C(=O)CC(=O)/C=C/c2ccc(O)c(OC)c2)ccc1O | 2.54 µM |
| C[C@@H]1CN([C@@H](C)CO)C(=O)c2cccc(NS(=O)(=O)c3ccc(F)cc3)c2O[C@@H]1CN(C)Cc1ccc(C(=O)Nc2ccccc2N)cc1 | 8.41 µM |
| CC(C)N1C/C(=C/c2cccnc2)C(=O)/C(=C/c2cccnc2)C1 | 10.5 µM |
| Cc1ccccc1NC(=O)C(=Cc1ccc(C(=O)O)cc1)C(=O)Nc1ccccc1C | 5.97 µM |
| N#C[C@H]1N[C@H](CO)[C@H]1c1ccc(C#Cc2ccc(F)cc2)cc1 | 20.2 µM |
| CC[C@@H]1C[C@H]2CC[C@H](O2)[C@H](C)C(=O)O[C@@H](C)C[C@@H]2CC[C@@H](O2)[C@@H](C)C(=O)O[C@H](C)C[C@H]2CC[C@H](O2)[C@H](C)C(=O)O[C@@H](C)C[C@@H]2CC[C@@H](O2)[C@@H](C)C(=O)O1 | 0.243 µM |
| Cc1cccc(/C=N/Nc2ccc3ccccc3n2)c1 | 18.9 µM |
| O=C(c1cccc(S(=O)(=O)NCc2ccccc2)c1)N1CCN(c2ccccc2)CC1 | 20.8 µM |
| Cc1[nH][nH]c(=O)c1C(c1c(C)[nH][nH]c1=O)c1cn(Cc2ccc(Cl)c(Cl)c2)c2ccccc12 | 9.8 µM |
| COc1cc(-c2cnc3c(NC=O)cc(-c4cccc(NC(C)=O)c4)cn23)cc(OC)c1OC | 0.371 µM |
| C[C@H]1CN([C@@H](C)CO)C(=O)c2cccc(NC(=O)CCCCCC(=O)Nc3ccccc3N)c2O[C@@H]1CN(C)Cc1ccc2c(c1)OCO2 | 23.6 µM |
| C[C@H]1CN([C@@H](C)CO)C(=O)Cc2cc(NC(=O)CCCCCC(=O)Nc3ccccc3N)ccc2O[C@H]1CN(C)Cc1ccc(Cl)c(Cl)c1 | 10.2 µM |

| SMILES | AC35 |
| --- | --- |
| O=C(C[C@H]1C[C@H]2c3cc(NS(=O)(=O)c4ccc(F)cc4)ccc3O[C@H]2[C@H](CO)O1)NCc1ccc(Oc2ccccc2)cc1 | 12.6 µM |
| COC(=O)C[C@@H]1CC[C@@H]2[C@@H](COc3ccc(NC(=O)Nc4ccc(C#N)cc4)cc3C(=O)N2C)O1 | 9.7 µM |
| CN1C(=O)c2cc(NC(=O)c3ccc(C(F)(F)F)cc3)ccc2OC[C@@H]2O[C@@H](CC(=O)NC3Cc4ccccc4C3)CC[C@H]21 | 4.43 µM |
| COC(=O)C1=C(C)N(Cc2cccc(C(F)(F)F)c2)C(=NCc2ccc(OC)cc2)NC1c1cccc(F)c1 (configuration not stated) | 4.46 µM |
| C[C@@H]1CCCCO[C@H](CN(C)Cc2ccc(C(=O)Nc3ccccc3N)cc2)[C@@H](C)CN([C@@H](C)CO)C(=O)c2cc(NS(=O)(=O)c3ccc(Cl)cc3)ccc2O1 | 8.42 µM |
| Nc1nc(N)c(-c2cccc(C(F)(F)F)c2)c(Cc2cccc(C(F)(F)F)c2)n1 | 5.72 µM |
| CCc1nc(N)nc(N)c1-c1ccc(Cl)c(N=[N+]=[N-])c1 | 7.14 µM |
| S=c1[nH]nc(-c2cc(-c3ccccc3)n[nH]2)n1/N=C/C(Br)=C/c1ccccc1 | 5.5 µM |
| C[C@@H]1CN([C@@H](C)CO)C(=O)Cc2cc(N(C)C)ccc2O[C@@H]1CN(C)Cc1ccccc1 | 14.4 µM |
| CCCCCCCCn1c2c(c(=N)c3c1CCC3)CCCC2 | 5.07 µM |
| COc1ccc(N=C2C(=O)Nc3ccc(C)c(Br)c32)cc1 | 17 µM |
| O=C(O)c1ccccc1C(=O)Nc1ccc(Oc2cccc3ccccc23)cc1 | 18.9 µM |
| COC(=O)C[C@H]1CC[C@@H](NC(=O)Nc2ccc(C(F)(F)F)cc2)[C@H](CO)O1 | 18.9 µM |
| C[C@H](O)C#Cc1ccc2c(c1)O[C@@H](CN(C)Cc1ccc(-c3ccccc3)cc1)[C@H](C)CN([C@@H](C)CO)S2(=O)=O | 5.46 µM and 7.12 µM |
| O=C(NC(c1ccc(F)cc1)c1ccc2ccccc2n1)C1CCN(Cc2cccc(C(F)(F)F)c2)CC1 (configuration not stated) | 14.6 µM |
| C=C(C(=O)c1ccccc1)C(C)C(=C)C(=O)c1ccccc1 | 4.81 µM |
| COc1ccc(C2=Nn3c(nnc3-c3ccccc3F)SC2)cc1OC1CCOC1 (configuration not stated) | 13.5 µM |
| COc1ccc(OC)c(-c2nnc3n2N=C(c2ccc(OC)c(OC4CCCC4)c2)CS3)c1 | 2.71 µM |
| COc1ccc(C2=Nn3c(nnc3-c3ccccc3OC)SC2)cc1OCC1CC1 | 4.88 µM |
| CC(=O)Nc1cccc(-c2ccnc3c2CC(C)(C(=O)NCc2ccc(N(C)C)cc2)O3)c1 (configuration not stated) | 13.3 µM |
| Cc1ccccc1S(=O)(=O)N1CC[C@@H]2[C@@H](CO)Nc3ccc(-c4ccc(C#N)cc4)cc3[C@@H]21 | 4.47 µM |
